Experimental data as given in paper PMC8309759, “A Dual-Sensor-Based Screening System for In Vitro Selection of TDP1 Inhibitors” (Sensors (Basel, Switzerland), 2021).
Read-outs that look alike come from different tables or passages of the source.

How the values were obtained:
topoisomerase 1 (TOP1) = biological target: T1, topoisomerase 1 (TOP1) (Homo sapiens, UniProt P11387); assay: REEAD cleavage-ligation assay with purified TOP1, […] CPT; type: biochemical
T1 sequence (P11387 2-765): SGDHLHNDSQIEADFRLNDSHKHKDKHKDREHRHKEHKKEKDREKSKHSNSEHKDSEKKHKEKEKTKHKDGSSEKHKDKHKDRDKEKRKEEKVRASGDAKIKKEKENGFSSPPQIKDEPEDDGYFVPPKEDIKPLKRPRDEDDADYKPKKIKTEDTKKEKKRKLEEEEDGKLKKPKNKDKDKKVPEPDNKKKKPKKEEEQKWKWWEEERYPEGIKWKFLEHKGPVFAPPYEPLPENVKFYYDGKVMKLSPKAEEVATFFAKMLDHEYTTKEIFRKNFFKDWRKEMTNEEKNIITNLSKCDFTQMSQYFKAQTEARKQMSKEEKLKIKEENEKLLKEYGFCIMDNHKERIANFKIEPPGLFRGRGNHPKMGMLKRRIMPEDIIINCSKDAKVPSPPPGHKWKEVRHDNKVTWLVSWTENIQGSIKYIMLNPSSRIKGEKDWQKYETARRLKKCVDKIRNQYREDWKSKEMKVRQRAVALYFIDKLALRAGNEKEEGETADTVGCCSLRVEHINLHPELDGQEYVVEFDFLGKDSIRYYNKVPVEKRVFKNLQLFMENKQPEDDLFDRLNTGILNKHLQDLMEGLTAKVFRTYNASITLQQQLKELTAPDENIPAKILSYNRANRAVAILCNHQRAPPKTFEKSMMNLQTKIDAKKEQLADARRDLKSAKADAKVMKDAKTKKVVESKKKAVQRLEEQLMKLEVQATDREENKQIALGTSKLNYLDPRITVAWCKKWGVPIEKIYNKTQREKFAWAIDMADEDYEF

[1] = biological target: tyrosyl-DNA phosphodiesterase 1 (TDP1) (Homo sapiens, UniProt Q9NUW8); assay: fluorescent hairpin DNA sensor (ATTO488/BHQ1) assay with purified human TDP1, 13-point dose response; type: biochemical
Sequence of tyrosyl-DNA phosphodiesterase 1 (TDP1) (Q9NUW8 whole entry): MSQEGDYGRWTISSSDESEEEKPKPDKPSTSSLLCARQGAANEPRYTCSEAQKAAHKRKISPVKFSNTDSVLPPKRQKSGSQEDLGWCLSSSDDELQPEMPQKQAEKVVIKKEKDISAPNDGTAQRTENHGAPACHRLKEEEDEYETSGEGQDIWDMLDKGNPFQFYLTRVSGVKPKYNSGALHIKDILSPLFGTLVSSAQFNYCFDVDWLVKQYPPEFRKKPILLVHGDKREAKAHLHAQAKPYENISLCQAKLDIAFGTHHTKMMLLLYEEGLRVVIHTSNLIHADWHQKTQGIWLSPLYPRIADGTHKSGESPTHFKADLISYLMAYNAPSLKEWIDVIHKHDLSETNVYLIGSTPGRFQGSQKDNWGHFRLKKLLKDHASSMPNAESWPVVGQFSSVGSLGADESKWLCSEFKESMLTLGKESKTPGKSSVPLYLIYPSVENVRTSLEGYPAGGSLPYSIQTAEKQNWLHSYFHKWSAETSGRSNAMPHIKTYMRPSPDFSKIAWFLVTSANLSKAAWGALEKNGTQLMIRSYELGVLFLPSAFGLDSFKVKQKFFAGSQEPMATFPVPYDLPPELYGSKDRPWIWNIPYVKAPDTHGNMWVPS

## CC[C@@]1(O)C(=O)OCc2c1cc1n(c2=O)Cc2cc3ccccc3nc2-1 [CPT, camptothecin]
Topoisomerase 1 (TOP1)
  REEAD cleavage-ligation assay with purified TOP1, 80 μM CPT: CPT control is a positive control for TOP1 inhibition.

## COc1ccc(-c2cc(-c3ccc([N+](=O)[O-])cc3)nc3cccnc23)cc1 [NAF-15]
[1]; read-out: IC50
  IC50: 37.8 µM

## FC(F)(F)c1ccc(C2CC(c3ccccc3)c3cccc(P(=S)(c4ccccc4)c4ccccc4)c3N2)cc1 (stereo not shown) [PSTHQ-2]
[1]
  IC50: 4.28 µM

## O=[N+]([O-])c1ccc(C2CC(c3ccccc3)c3cccc(P(=S)(c4ccccc4)c4ccccc4)c3N2)cc1 (stereo not shown) [PSTHQ-13]
[1]
  IC50: 13.1 µM
